According to a melting point compilation (Tetko et al.):

Work on `CC(=Cc1ccc(C(=O)O)cc1)c1ccc2c(c1)C(C)(C)CCC2(C)C` yielded a melting point of 240 °C.
Compound `O=C(O)CSc1ccnc2cc(Cl)ccc12` has a melting point of 223 to 225 °C.
For `ClC1=C(Cl)C2(Cl)C(CBr)CC1(Cl)C2(Cl)Cl` (centres undefined), the melting point was 77 °C.
For `CC(C)(C)CC(C)(C)c1ccc(OCCO)cc1`, the melting point was -4 °C.
Compound `Cc1onc(-c2ccccc2Cl)c1C(=O)O` has a melting point of 190 °C.
`N#CC(=NO)c1ccccc1` showed a melting point of 129 °C.
`OC(CCN1CCCC1)(c1ccccc1)C1CCCCC1` (centres undefined) showed a melting point of 86 °C.
`CC(=O)Nc1ccc(OC(=O)c2ccccc2OC(C)=O)cc1` showed a melting point of 175 °C.
`CCCCCCCCCC(=O)CCCCCC` gave a melting point of 37 °C.
For `CSc1ccc(O)cc1C`, the melting point was 56 °C.
`CCOC(=O)C(C(N)=S)=C1NN=C(c2ccc(Cl)cc2)O1` showed a melting point of 174 to 177 °C.
Compound `COc1ccc(C=CC(=O)c2cccc(C(=O)C=Cc3ccc(OC)c(O)c3)c2)cc1O` has a melting point greater than 200 °C.
Compound `CC(C)(C)c1csc(N)n1` has a melting point of 101 °C.
Work on `CC1=C(C)CC(Cl)(Cl)C(=O)C(Cl)(Cl)C1` yielded a melting point of 91 °C.
With `CCCCOc1ccc(NC(=O)C(C(F)(F)F)C(F)(F)F)cc1` the melting point was 172 °C.
For `CN(N=Cc1ccc(F)cc1)P(=O)(N1CC1)N1CC1`, the melting point was 106 °C.
`CC(C)CCCC(C(=O)O)C1=CCC2(C)C(CCC3C4CCC(O)C4(C)CCC32)C1` (centres undefined) showed a melting point of 193 °C.
Work on `CCCC(=O)Nc1ccc(OCC(O)CNC(C)C)c(C(C)=O)c1` (centres undefined) yielded a melting point of 119 °C.
In the case of `O=C1O[C@H](C(Cl)(Cl)Cl)N2CCC[C@@H]12` (relative stereo), the melting point is reported as 110 °C.
`c1ccc2cc3cc4ccccc4cc3cc2c1` gave a melting point of 357 °C.
For `c1ccc(Nc2ccc3ccccc3c2)cc1`, the melting point was 108 °C.
`O=C(Cl)c1ccc(-c2nccs2)cc1` showed a melting point of 122 to 123 °C.
Compound `N=C(N)NC(=N)N` has a melting point of 136 °C.
In the case of `CC1CC2C3CCC4=CC(=O)C=CC4(C)C3(F)C(O)CC2(C)C1C(=O)CO` (centres undefined), the melting point is reported as 217 °C.
`Cc1nc2ccccc2o1` showed a melting point of 9.5 °C.
`CCCCCC(=O)OC` gave a melting point of -71 °C.
For `COC(=O)C1(S(=O)(=O)c2ccc(Br)cc2)CCCC1`, the melting point was 104 °C.
With `COc1ccc(Br)c(C(=O)CC#N)c1` the melting point was 92 to 93 °C.
`N#Cc1ccccc1S(=O)(=O)Cl` showed a melting point of 69 to 70 °C.
Compound `CC12CCC(C(COC(=O)c3ccc([N+](=O)[O-])cc3)C1)C2(C)C` (centres undefined) has a melting point of 100 °C.
`Cc1nn(-c2ccccc2)nc1CO` showed a melting point of 75 to 76 °C.
`O=[N+]([O-])c1ccc2ncsc2c1` gave a melting point of 175 °C.
For `O=C(O)/C(=C\c1ccccc1)c1ccccc1[N+](=O)[O-]`, the melting point was 192 °C.
In the case of `O[C@H](C1CCCCC1)[C@H](O)C1CCCCC1`, the melting point is reported as 136 to 141 °C.
Compound `Cc1ccc(O)c([N+](=O)[O-])n1` has a melting point of 107 °C.
`CCc1cc(CC)cc(CC)c1` showed a melting point of -66.5 °C.
`c1ccc(P(c2ccccc2)P(c2ccccc2)c2ccccc2)cc1` gave a melting point of 120 to 122 °C.
For `O=C1/C(=C/c2ccc([N+](=O)[O-])cc2)SC(=S)N1CN(CCCl)CCCl`, the melting point was 284 °C.
In the case of `Brc1ccc(-c2c(Br)c(Br)c(Br)c(Br)c2Br)c(Br)c1Br`, the melting point is reported as 225 °C.
`COc1ccc(C(=O)C2CC2)cc1` showed a melting point of 42 °C.
With `CC(O)(c1cc2ccccc2o1)c1cc2ccccc2o1` the melting point was 91 to 92 °C.
`Cc1cc2c(c(=O)n1Cc1ccccc1)C(c1ccccc1)C(C#N)=C(N)O2` (centres undefined) gave a melting point of 275 to 277 °C.
`CSc1nc(NS(=O)(=O)c2ccc(C)cc2)c(C#N)c(-c2ccc(Cl)cc2)c1Br` showed a melting point of 218 °C.
Work on `CCOc1ccc(NC(=O)CN)cc1` yielded a melting point of 100 °C.
`CCCCOC(=O)C1=C(C)NC(C)=C(C(=O)OCCCC)C1c1ccco1` showed a melting point of 87 °C.
In the case of `CN(C)c1ccc(C2Nn3c(nnc3-c3cccc([N+](=O)[O-])c3)S2)cc1` (centres undefined), the melting point is reported as 197 to 199 °C.
For `Clc1c(Cl)c(Cl)c2c(c1Cl)Oc1ccccc1O2`, the melting point was 188 °C.
For `O=C1C(=C2C=Cc3ccccc3N2)C(=O)c2c1cccc2[N+](=O)[O-]`, the melting point was 360 °C.
In the case of `CC(=O)O[C@@H](C(=O)O)c1ccccc1`, the melting point is reported as 97 °C.
In the case of `Oc1ccc(Cl)cc1Sc1cc(Cl)ccc1O`, the melting point is reported as 174 °C.
With `CC(=O)Nc1ccc(S(=O)(=O)Cl)cc1Cl` the melting point was 143 to 145 °C.
Work on `Cc1cc(C)c(C(C)C)cc1C` yielded a melting point of 21 °C.
With `CCC(Br)(CC)C(=O)NC(=O)NC(C)=O` the melting point was 109 °C.
For `CC(=O)Oc1ccc2c(c1)c(OC(C)=O)c(-c1ccccc1)n2OC(C)=O`, the melting point was 194 to 196 °C.
In the case of `CC12CCC(C(=CC(=O)NC(N)=O)C1=O)C2(C)C` (centres undefined), the melting point is reported as 206 °C.
In the case of `O=C1CCCCCC1=O`, the melting point is reported as -40 °C.
For `Cc1cc(O)c2ccccc2c1O`, the melting point was 169 °C.
In the case of `CCOc1c(N2CCOCC2)cnn(C)c1=O`, the melting point is reported as 90 °C.
`C#CC[C@H](NC(=O)OCC1c2ccccc2-c2ccccc21)C(=O)O` showed a melting point of 175 °C.
With `Cc1ccc(S(=O)(=O)c2ccccc2)cc1` the melting point was 127 °C.
Compound `CCC(C)(O)C(C)(C)C` (centres undefined) has a melting point of -6 °C.
With `Cc1cc(-n2c(=O)[nH]c(=O)n(C)c2=O)ccc1Oc1ccc(SC(F)(F)F)cc1` the melting point was 194 °C.
`OCc1cc(CO)cc(OCc2cc(COc3cc(CO)cc(CO)c3)cc(COc3cc(CO)cc(CO)c3)c2)c1` showed a melting point of 144 °C.
With `Brc1ccc2nccnc2c1` the melting point was 54 to 55 °C.
`O=S(=O)(Cl)c1ccc(F)cc1C(F)(F)F` gave a melting point of 50 °C.
For `O=C1c2cccc([N+](=O)[O-])c2C(=O)c2cccc([N+](=O)[O-])c21`, the melting point was 385 °C.
For `NC1=NCC2c3ccccc3Cc3ccccc3N12` (centres undefined), the melting point was 206 °C.
`ClCc1nc(-c2ccc(Cl)cc2)no1` showed a melting point of 60 to 61 °C.
`FC(F)(F)c1ccc2c(c1)NCCC2` gave a melting point of 32 °C.
For `N#CCc1ccc(Cl)cc1Cl`, the melting point was 60 to 63 °C.
For `Nc1ccc2c(c1)COCO2`, the melting point was 69 °C.
Work on `CCCCCCCCCCCC(O)CC` (centres undefined) yielded a melting point of 31.5 °C.
Work on `Oc1ccc(O)c2c1C1CCC2C1` yielded a melting point of 172 to 178 °C.
Compound `CCOCCOC(=O)CCCCCCCCC(=O)OCCOCC` has a melting point of -1 °C.
In the case of `O=C(Nc1ccc2ncccc2c1)Nc1ccc2ncccc2c1`, the melting point is reported as 262 °C.
`CCn1c2ccc(Br)cc2c2cc(Br)ccc21` showed a melting point of 139 °C.
In the case of `Nc1cccc(C(F)(F)F)c1Cl`, the melting point is reported as 27 °C.
Work on `Cc1c(F)ccc(C#N)c1F` yielded a melting point of 44 °C.
Work on `N#CCc1ccc(Oc2ccc([N+](=O)[O-])cn2)cc1` yielded a melting point of 118 to 119 °C.
`COc1ccc(C(N)=S)cn1` gave a melting point of 150 to 152 °C.
Compound `O=C1OCC(O)C1O` (centres undefined) has a melting point of 99 to 102 °C.
In the case of `C=Cc1ccc2c(c1)OCCOCCOCCOCCO2`, the melting point is reported as 35 to 43 °C.
With `O=C1c2ccccc2C(=O)c2c(O)cccc21` the melting point was 194 °C.
In the case of `CC1=CC(C)N=N1` (centres undefined), the melting point is reported as 108 °C.
`CCCCCCCCCCCCCCCCCCCCCCCCCCCCCCCCCCC` gave a melting point of 75 °C.
`O=C(NC(=O)c1ccccc1)c1ccccc1` showed a melting point of 152 °C.
Work on `O=C(O)CCSCCCSCCC(=O)O` yielded a melting point of 107 to 109 °C.
For `N#Cc1cccc(Cn2cncn2)c1`, the melting point was 91 to 92 °C.
`CC(C)c1c(C(=O)Nc2ccccc2)c(-c2ccccc2)c(-c2ccc(F)cc2)n1CCC(O)CC(O)CC(=O)O` (centres undefined) showed a melting point of 160 °C.
